Common to all, as to assay type: biochemical
Assay [1] has as its target ROCK I (AA 6-553) (Homo sapiens, UniProt Q13464). Nature of the assay: ROCK inhibition assay, coupled enzyme system ("Enzyme"). The following applies: enzyme-linked assay; average Ki if more than one determined. The method, then:
Reactions were carried out in a solution containing 100 mM HEPES (pH 7.5), 10 mM MgCl2, 25 mM NaCl, 2 mM DTT and 1.5% DMSO.
(§1) If more than one value of Ki has been determined, the average Ki is indicated. If no value is indicated, then the Ki was not determined.

Assay [2] addresses PKA (Homo sapiens, UniProt P17612). The experiment in a line: PKA inhibition assay, coupled enzyme. The following applies: average Ki if more than one determined. On the procedure: Compounds were screened for their ability to inhibit PKA using a standard coupled enzyme assay (Fox et al., Protein Sci, 1998, 7, 2249). Assays were carried out in a mixture of 100 mM HEPES (pH 7.5), 10 mM MgCl2, 25 mM NaCl, 1 mM DTT and 3% DMSO. Final substrate concentrations in the assay were 50 μM ATP (Sigma Chemicals) and 80 μM peptide (Kemptide, American Peptide, Sunnyvale, Calif.). Assays were carried out at 30° C. and 18 nM PKA. Final concentrations of the components of the coupled enzyme system were 2.5 mM phosphoenolpyruvate, 300 μM NADH, 30 μg/ml pyruvate kinase and 10 μg/ml lactate dehydrogenase.
An assay stock buffer solution was prepared containing all of the reagents listed above, with the exception of ATP, and the test compound of the present invention. […] The plate was preincubated for 10 minutes at 30° C. and the reaction initiated by addition of 5 μl of ATP (final concentration 50 μM). Initial reaction rates were determined with a Molecular Devices SpectraMax Plus plate reader over a 15 minute time course. IC50 and Ki data were calculated from non-linear regression analysis using the Prism software package (GraphPad Prism version 3.0a for Macintosh, GraphPad Software, San Diego Calif., USA).

The target in assay [3] is ROCK (Homo sapiens, UniProt Q13464). Nature of the assay: ROCK radioactive assay ("33P").
Sequence of ROCK (Q13464 whole entry): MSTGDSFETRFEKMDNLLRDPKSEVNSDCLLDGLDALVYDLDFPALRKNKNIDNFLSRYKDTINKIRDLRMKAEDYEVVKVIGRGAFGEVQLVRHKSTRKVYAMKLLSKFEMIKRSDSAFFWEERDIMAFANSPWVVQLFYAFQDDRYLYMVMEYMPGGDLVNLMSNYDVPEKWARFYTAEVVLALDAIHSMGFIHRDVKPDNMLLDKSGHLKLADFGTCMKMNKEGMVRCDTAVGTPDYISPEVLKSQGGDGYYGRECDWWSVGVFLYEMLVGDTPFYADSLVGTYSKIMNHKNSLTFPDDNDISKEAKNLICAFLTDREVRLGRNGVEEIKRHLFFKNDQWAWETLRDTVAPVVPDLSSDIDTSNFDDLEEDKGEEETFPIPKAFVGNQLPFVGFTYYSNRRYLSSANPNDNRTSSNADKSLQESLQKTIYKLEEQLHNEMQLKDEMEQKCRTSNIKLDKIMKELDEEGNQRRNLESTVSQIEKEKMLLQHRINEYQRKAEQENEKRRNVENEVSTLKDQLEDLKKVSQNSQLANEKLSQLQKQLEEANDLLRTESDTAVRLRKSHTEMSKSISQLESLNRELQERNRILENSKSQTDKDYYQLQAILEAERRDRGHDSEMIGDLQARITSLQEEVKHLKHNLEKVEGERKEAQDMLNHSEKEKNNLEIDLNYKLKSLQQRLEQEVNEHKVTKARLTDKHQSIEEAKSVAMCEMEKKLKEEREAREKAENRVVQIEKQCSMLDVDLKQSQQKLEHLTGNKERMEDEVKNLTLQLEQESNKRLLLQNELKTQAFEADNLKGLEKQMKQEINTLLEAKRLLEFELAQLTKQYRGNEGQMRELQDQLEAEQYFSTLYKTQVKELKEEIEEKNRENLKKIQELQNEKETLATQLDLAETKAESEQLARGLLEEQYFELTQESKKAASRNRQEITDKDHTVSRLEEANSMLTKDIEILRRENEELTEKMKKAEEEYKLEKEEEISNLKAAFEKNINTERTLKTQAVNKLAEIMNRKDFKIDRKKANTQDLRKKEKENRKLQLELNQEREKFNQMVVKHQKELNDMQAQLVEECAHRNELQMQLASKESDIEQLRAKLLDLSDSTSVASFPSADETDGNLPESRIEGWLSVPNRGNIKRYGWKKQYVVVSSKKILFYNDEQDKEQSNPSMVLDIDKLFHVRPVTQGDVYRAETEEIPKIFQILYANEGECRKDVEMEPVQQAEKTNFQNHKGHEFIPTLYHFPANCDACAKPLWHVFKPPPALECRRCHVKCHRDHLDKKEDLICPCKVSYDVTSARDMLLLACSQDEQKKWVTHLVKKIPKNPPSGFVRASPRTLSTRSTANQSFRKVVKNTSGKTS
Source text: as §1

Where [4] appears, read: radioactive assay, average Ki if more than one determined, read-out: ROCK 33P Ki.

Where two headings read alike, the source gives them in different places.

Sequence of ROCK I (AA 6-553) (Q13464 6-553, species assumed): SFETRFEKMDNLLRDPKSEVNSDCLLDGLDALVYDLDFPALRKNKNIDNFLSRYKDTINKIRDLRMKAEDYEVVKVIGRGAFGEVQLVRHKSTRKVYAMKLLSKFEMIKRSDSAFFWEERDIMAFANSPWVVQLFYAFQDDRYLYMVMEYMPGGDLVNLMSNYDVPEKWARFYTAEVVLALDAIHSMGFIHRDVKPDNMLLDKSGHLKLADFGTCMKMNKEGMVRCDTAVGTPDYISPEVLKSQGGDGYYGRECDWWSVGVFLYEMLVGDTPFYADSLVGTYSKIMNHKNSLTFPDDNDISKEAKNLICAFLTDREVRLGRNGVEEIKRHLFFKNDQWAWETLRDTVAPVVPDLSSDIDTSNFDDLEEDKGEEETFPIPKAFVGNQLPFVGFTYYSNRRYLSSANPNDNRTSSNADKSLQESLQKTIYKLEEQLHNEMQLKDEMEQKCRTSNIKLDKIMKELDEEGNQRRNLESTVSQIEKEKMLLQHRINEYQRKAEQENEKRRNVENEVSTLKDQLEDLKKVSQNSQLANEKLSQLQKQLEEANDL

As to `O=C(Cc1ccccc1F)Nc1nc(-c2c[nH]c3ncccc23)cs1` [I-3], the Ki in assay [1] and in assay [2] was less than 0.5 µM throughout.
For the compound `O=C(Cc1ccc(F)cc1)Nc1nc(-c2c[nH]c3ncccc23)cs1` [I-4], the Ki in assay [1] and in assay [2] was less than 0.5 µM each time.
Take `O=C(Cc1ccc(F)cc1F)Nc1nc(-c2c[nH]c3ncccc23)cs1` [I-6]: the inhibitory constant (Ki) in assay [1] and in assay [2] was less than 0.5 µM in each case.
Consider `O=C(CCc1ccccc1)Nc1nc(-c2c[nH]c3ncccc23)cs1` [I-7], for which the Ki in assay [1] and in assay [2] was less than 0.5 µM throughout.
Consider `CC(C)(C)OC(=O)N1CCC(CCCOc2cccc(CC(=O)Nc3nc(-c4c[nH]c5ncccc45)cs3)c2)CC1` [I-9], for which the Ki was less than 0.5 µM in assay [1] and 0.5 to 5 µM in assay [2].
With `CS(=O)(=O)Oc1cccc(CC(=O)Nc2nc(-c3c[nH]c4ncccc34)cs2)c1` [I-10], the Ki in assay [1] and in assay [2] was less than 0.5 µM each time.
Consider `O=C(Cc1cc2c(cc1Cl)OCO2)Nc1nc(-c2c[nH]c3ncccc23)cs1` [I-13], for which the Ki in assay [1] and in assay [2] was less than 0.5 µM each time.
As for `COc1ccc(CC(=O)Nc2nc(-c3c[nH]c4ncccc34)cs2)c(Cl)c1` [I-18], the Ki in assay [1] and in assay [2] was less than 0.5 µM throughout.
As to `COc1cccc(CC(=O)Nc2nnc(-c3c[nH]c4ncccc34)s2)c1` [I-21], the Ki in assay [1] and in assay [2] was less than 0.5 µM throughout.
In the case of `O=C(Cc1ccc(F)cc1F)Nc1nnc(-c2c[nH]c3ncccc23)s1` [I-22], the Ki in assay [1] and in assay [2] was less than 0.5 µM throughout.
Turning to `O=C(Cc1ccccc1F)Nc1nnc(-c2c[nH]c3ncccc23)s1` [I-23], the Ki in assay [1] and in assay [2] was less than 0.5 µM each time.
In the case of `c1cnc2[nH]cc(-c3csc(NC4CC4)n3)c2c1` [II-3], the Ki in assay [1] and in assay [2] was 0.5 to 5 µM each time.
As to `O=C(Cc1cccc(S(=O)(=O)NC2CC2)c1)Nc1nc(-c2c[nH]c3ncccc23)cs1` [II-6], the Ki in assay [1] and in assay [2] was less than 0.5 µM each time.
As to `O=C(Cc1ccc(F)cc1)Nc1nnc(-c2c[nH]c3ncccc23)s1` [II-7], the Ki in assay [1] and in assay [2] was less than 0.5 µM in each case.
On to `O=C(Cc1ccccc1)Nc1nnc(-c2c[nH]c3ncccc23)s1` [II-8], for which the Ki in assay [1] and in assay [2] was less than 0.5 µM throughout.
In the case of `CS(=O)(=O)Nc1cccc(CC(=O)Nc2nnc(-c3c[nH]c4ncccc34)s2)c1` [II-9], the Ki in assay [1] and in assay [2] was less than 0.5 µM each time.
For `COc1cccc(CNC(=O)c2csc(-c3c[nH]c4ncccc34)n2)c1` [II-21], the Ki in assay [1] was less than 0.5 µM.
In turn, `O=C(Cc1cccc(OCCCC2CCNCC2)c1)Nc1nnc(-c2c[nH]c3ncccc23)s1` [II-22] came in with a Ki in assay [1] of less than 0.5 µM.
For `O=C(Nc1nc(-c2c[nH]c3ncccc23)cs1)[C@@H](O)c1ccccc1` [II-207], the Ki in assay [3] (setting [4]) and in assay [2] was less than 0.5 µM each time.
With `COc1cccc(C(O)C(=O)Nc2nc(-c3c[nH]c4ncccc34)cs2)c1` (centres unmarked) [II-208], the inhibition constant (Ki) in assay [3] (setting [4]) and in assay [2] was less than 0.5 µM each time.
As to `O=C(Nc1nc(-c2c[nH]c3ncccc23)cs1)C(O)c1ccc(F)cc1F` (centres unmarked) [II-209], the Ki in assay [3] (setting [4]) and in assay [2] was less than 0.5 µM in each case.
Regarding `O=C(Nc1nc(-c2c[nH]c3ncccc23)cs1)[C@H](O)c1ccccc1` [II-210], the Ki in assay [3] (setting [4]) and in assay [2] was less than 0.5 µM throughout.
Take `CS(=O)(=O)Nc1cccc(C(O)C(=O)Nc2nc(-c3c[nH]c4ncccc34)cs2)c1` (centres unmarked) [II-211]: the Ki in assay [3] (setting [4]) and in assay [2] was less than 0.5 µM in each case.
Turning to `Nc1cccc(C(O)C(=O)Nc2nc(-c3c[nH]c4ncccc34)cs2)c1` (centres unmarked) [II-212], the Ki in assay [3] (setting [4]) and in assay [2] was less than 0.5 µM each time.
`NC(C(=O)Nc1nc(-c2c[nH]c3ncccc23)cs1)c1ccc(F)cc1` (centres unmarked) [II-213]: the Ki in assay [3] (setting [4]) and in assay [2] was less than 0.5 µM throughout.
Take `N[C@@H](C(=O)Nc1nc(-c2c[nH]c3ncccc23)cs1)c1ccccc1` [II-214]: the inhibition constant Ki in assay [3] (setting [4]) and in assay [2] was less than 0.5 µM in each case.
Consider `O=C(Cc1ccccn1)Nc1nc(-c2c[nH]c3ncccc23)cs1` [II-215], for which the inhibitory constant (Ki) in assay [3] (setting [4]) and in assay [2] was less than 0.5 µM throughout.
Turning to `CS(=O)(=O)Nc1cccc(CC(=O)Nc2nc(-c3c[nH]c4c3ccc[n+]4[O-])cs2)c1` [II-216], the inhibitory constant (Ki) in assay [3] is less than 0.5 µM; in assay [2], 0.5 to 5 µM.
Consider `CS(=O)(=O)NCC(=O)Nc1nc(-c2c[nH]c3ncccc23)cs1` [II-217], for which the Ki in assay [3] (setting [4]) and in assay [2] was less than 0.5 µM throughout.
As for `CCS(=O)(=O)NCC(=O)Nc1nc(-c2c[nH]c3ncccc23)cs1` [II-218], the inhibitory constant (Ki) in assay [3] (setting [4]) and in assay [2] was less than 0.5 µM in each case.
In the case of `CS(=O)(=O)Nc1cccc(C(N)C(=O)Nc2nc(-c3c[nH]c4ncccc34)cs2)c1` (centres unmarked) [II-219], the Ki in assay [3] (setting [4]) and in assay [2] was less than 0.5 µM each time.
With `CC(C)S(=O)(=O)NCC(=O)Nc1nc(-c2c[nH]c3ncccc23)cs1` [II-220], the inhibition constant Ki in assay [3] (setting [4]) and in assay [2] was less than 0.5 µM each time.
On to `CCS(=O)(=O)C(C)C(=O)Nc1nc(-c2c[nH]c3ncccc23)cs1` (centres unmarked) [II-221], for which the Ki in assay [3] (setting [4]) and in assay [2] was less than 0.5 µM each time.
With `C[C@H](NS(C)(=O)=O)C(=O)Nc1nc(-c2c[nH]c3ncccc23)cs1` [II-222], the inhibition constant Ki in assay [3] (setting [4]) and in assay [2] was less than 0.5 µM each time.
For the compound `CC(C)[C@H](NS(C)(=O)=O)C(=O)Nc1nc(-c2c[nH]c3ncccc23)cs1` [II-223], the inhibitory constant (Ki) in assay [3] (setting [4]) and in assay [2] was less than 0.5 µM throughout.
As to `CCCC(C(=O)Nc1nc(-c2c[nH]c3ncccc23)cs1)S(C)(=O)=O` (centres unmarked) [II-224], the Ki was less than 0.5 µM in assay [3] (setting [4]) and 0.5 to 5 µM in assay [2].
In the case of `CCCC(C(=O)Nc1nc(-c2c[nH]c3ncccc23)cs1)S(=O)(=O)CC` (centres unmarked) [II-225], the Ki in assay [3] (setting [4]) was less than 0.5 µM; in assay [2], 0.5 to 5 µM.
For the compound `CC(C(=O)Nc1nc(-c2c[nH]c3ncccc23)cs1)S(C)(=O)=O` (centres unmarked) [II-226], the Ki in assay [3] (setting [4]) and in assay [2] was less than 0.5 µM throughout.
For `CC(C)[C@@H](NS(C)(=O)=O)C(=O)Nc1nc(-c2c[nH]c3ncccc23)cs1` [II-227], the Ki in assay [3] (setting [4]) and in assay [2] was less than 0.5 µM each time.
In the case of `C[C@@H](NS(C)(=O)=O)C(=O)Nc1nc(-c2c[nH]c3ncccc23)cs1` [II-228], the inhibition constant (Ki) in assay [3] (setting [4]) and in assay [2] was less than 0.5 µM throughout.
In the case of `CS(=O)(=O)N1CCC[C@H]1C(=O)Nc1nc(-c2c[nH]c3ncccc23)cs1` [II-229], the Ki in assay [3] (setting [4]) and in assay [2] was less than 0.5 µM throughout.
`CS(=O)(=O)N1CCC[C@@H]1C(=O)Nc1nc(-c2c[nH]c3ncccc23)cs1` [II-230]: the Ki in assay [3] (setting [4]) and in assay [2] was less than 0.5 µM throughout.
On to `CN(CC(=O)Nc1nc(-c2c[nH]c3ncccc23)cs1)S(C)(=O)=O` [II-231], for which the inhibition constant (Ki) in assay [3] (setting [4]) and in assay [2] was less than 0.5 µM each time.
Take `CS(=O)(=O)N[C@H](COCc1ccccc1)C(=O)Nc1nc(-c2c[nH]c3ncccc23)cs1` [II-232]: the Ki in assay [3] (setting [4]) and in assay [2] was less than 0.5 µM in each case.
As for `CS(=O)(=O)N[C@@H](COCc1ccccc1)C(=O)Nc1nc(-c2c[nH]c3ncccc23)cs1` [II-233], the Ki in assay [3] (setting [4]) and in assay [2] was less than 0.5 µM in each case.
For the compound `CCNC(=O)Nc1nc(-c2c[nH]c3ncccc23)cs1` [II-234], the Ki in assay [3] (setting [4]) and in assay [2] was 0.5 to 5 µM in each case.
As to `O=C(NCCO)Nc1nc(-c2c[nH]c3ncccc23)cs1` [II-235], the inhibition constant (Ki) in assay [3] (setting [4]) and in assay [2] was 0.5 to 5 µM throughout.
As to `O=C(Nc1nc(-c2c[nH]c3ncccc23)cs1)N1CCOCC1` [II-236], the Ki in assay [3] (setting [4]) and in assay [2] was 0.5 to 5 µM each time.
As to `CN1CCN(C(=O)Nc2nc(-c3c[nH]c4ncccc34)cs2)CC1` [II-237], the Ki in assay [3] (setting [4]) and in assay [2] was 0.5 to 5 µM throughout.
`O=C(Nc1nc(-c2c[nH]c3ncccc23)cs1)N1CCCCC1` [II-238]: the Ki in assay [3] (setting [4]) and in assay [2] was 0.5 to 5 µM in each case.
As for `O=C(Nc1nc(-c2c[nH]c3ncccc23)cs1)NC1CCC(C(=O)O)CC1` (centres unmarked) [II-239], the Ki is less than 0.5 µM in assay [3] (setting [4]) and 0.5 to 5 µM in assay [2].
As to `CN(C)C(=O)Nc1nc(-c2c[nH]c3ncccc23)cs1` [II-240], the Ki in assay [3] (setting [4]) and in assay [2] was 0.5 to 5 µM throughout.
With `O=C(Nc1nc(-c2c[nH]c3ncccc23)cs1)N1CCCC1` [II-241], the Ki in assay [3] (setting [4]) and in assay [2] was 0.5 to 5 µM in each case.
With `CC(CN(C)C)NC(=O)Nc1nc(-c2c[nH]c3ncccc23)cs1` (centres unmarked) [II-242], the inhibition constant (Ki) in assay [3] (setting [4]) and in assay [2] was 0.5 to 5 µM each time.
For the compound `O=C(Nc1nc(-c2c[nH]c3ncccc23)cs1)N1CCNCC1` [II-243], the Ki in assay [3] (setting [4]) and in assay [2] was 0.5 to 5 µM each time.
Consider `CC(C)NC(=O)Nc1nc(-c2c[nH]c3ncccc23)cs1` [II-244], for which the Ki is less than 0.5 µM in assay [3] (setting [4]) and 0.5 to 5 µM in assay [2].

For the origin of these results see patent US7514448B2, “Azaindoles useful as inhibitors of rock and other protein kinases” (Vertex Pharmaceuticals Incorporated, priority 2004, dated 2009).
